Measured values published in paper PMC6522964 (Journal of Enzyme Inhibition and Medicinal Chemistry, 2019).
Like-named read-outs stand apart in the source and are kept apart here.

Legend:
[1] = target: T1, tyrosinase (Agaricus bisporus, UniProt C7FF04); assay type: biochemical, mushroom; settings: increasing CuCl2 0-240 μM; diphenolase activity
T1 construct: purchased Sigma-Aldrich (St. Louis, MO, USA)
Procedure: To investigate whether the binding of copper ions with the inhibitor takes place at the active site of tyrosinase, the assay was carried out according to the method by Ismaya with some modifications.[17] Stock solutions of each KADs (10 mM) were prepared in DMSO. Then, 0.33 mM solutions were prepared in a cuvette containing phosphate buffer (10 mM, pH 7.4), and treated with different concentrations of CuCl2 (0, 60, 120, 180 or 240 µM). After 10 min of incubation period at room temperature, absorbance was scanned from 240 to 600 nm. Moreover, the relative activity of tyrosinase was determined by adding 0.1 ml various concentrations of CuCl2–KADs complexes from the previous step. The reaction system and the method were the same as the determination of diphenolase activity.

[2] = target: T2, mushroom tyrosinase (Agaricus bisporus, UniProt C7FF04); test: Diphenolase activity of mushroom tyrosinase (L-DOPA as substrate), Lineweaver-Burk kinetics; assay type: biochemical; settings: for Inhibition Type / Inhibition Mechanism: diphenolase; for Inhibition Type: Lineweaver-Burk plots; for Inhibition Mechanism: enzyme activity vs enzyme concentration plots; for Inhibition constant KIS: enzyme-substrate complex, plot of vertical intercepts vs inhibitor concentration; for Ki: free enzyme, plot of slopes vs inhibitor concentration, read-out: Inhibition constant KI
T2 construct: purchased Sigma-Aldrich (St. Louis, MO, USA)
T2 sequence (C7FF04 1-392): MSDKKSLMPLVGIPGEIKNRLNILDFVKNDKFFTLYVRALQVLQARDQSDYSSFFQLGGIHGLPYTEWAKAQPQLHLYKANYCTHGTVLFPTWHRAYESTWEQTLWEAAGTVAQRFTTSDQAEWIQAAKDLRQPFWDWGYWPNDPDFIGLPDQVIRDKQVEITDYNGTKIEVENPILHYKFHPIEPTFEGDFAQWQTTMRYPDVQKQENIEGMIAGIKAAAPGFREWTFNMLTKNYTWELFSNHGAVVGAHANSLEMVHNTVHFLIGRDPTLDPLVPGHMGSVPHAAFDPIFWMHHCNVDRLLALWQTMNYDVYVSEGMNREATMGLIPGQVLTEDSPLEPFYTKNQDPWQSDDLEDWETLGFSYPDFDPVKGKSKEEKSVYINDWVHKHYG
Procedure: (§1) The reaction system (3 ml) contained 1 mM L-Tyr or 0.5 mM L-DOPA and enzyme in 50 mM Na2HPO4–NaH2PO4 buffer (pH 6.8) and different concentrations of KADs. The KADs were dissolved in DMSO and diluted to appropriate concentration, such that the final concentration of DMSO is maintained at 3.3%. […] The enzyme activity was evaluated by increasing the absorbance at 475 nm accompanying the oxidation of the substrates with a molar absorption coefficient of 3700 (M^−1 cm^−1). […] The reaction was carried out at 37 °C. A Thermo […] GO spectrophotometer was used for absorbance and kinetic measure.

[3] = target: T1, tyrosinase; test: Intrinsic fluorescence quenching of tyrosinase (Stern-Volmer); assay type: binding, mushroom
Procedure: Fluorescence spectra were determined as previously reported by Zhu.[12] Cary Eclipse fluorescence spectrophotometer was used to record the fluorescence intensities at an excitation wavelength of 280 nm, and emission and excitation slit widths were 10 nm and 5 nm, respectively. At wavelengths of 300–450 nm, fluorescence emission spectra were recorded. In this assay, 10 μL of KADs of different concentrations were incorporated with 2 ml tyrosinase solution (0.2 mg/ml).
The fluorescence quenching data expressed as the fluorescence intensity against KADs concentration. Fluorescence quenching was calculated using the Stern–Volmer equation: F0/F = 1 + KSV[Q] Where F0 is the fluorescence intensities of tyrosinase, F is the fluorescence intensities after addition of the quencher, [Q] is the concentration of the quencher and KSV is the Stern–Volmer quenching constant. For the calculation of biomolecular quenching constants, the data were plotted as F0/F against [Q], with the biomolecular quenching constants calculated by linear regression.
There are two known fluorescence quenching mechanisms: static quenching is caused by complex formation while dynamic quenching is caused by collisional processes.[13] For the static quenching, the KSV value must be larger than 100 M^−1 and the apparent binding constant (KA) and the binding sites (n) were estimated by plots of log[(F0−F)/F] versus log[Q] using the following equation:[14] log ((F0 − F)/F) = logKA + nlog [Q]

[4] = target: T2, mushroom tyrosinase; settings: L-Tyr substrate, read-out: IC50 Monophenolase; cited from earlier work
[5] = target: T2, mushroom tyrosinase; settings: L-DOPA substrate, read-out: IC50 Diphenolase; cited from earlier work
[6] = DPPH free-radical scavenging assay
Procedure: (§2) The antioxidant capacities of compounds usually analysed through DPPH and ABTS^+ free-radical scavenging assays. The DPPH free-radical scavenging was conducted according to the procedure described by Chen.[18] Stock solution (0.2 mM DPPH) was prepared in 95% methyl alcohol and diluted to with OD value of 1.1 ± 0.05 at 517 nm for analysis. Briefly, 0.1 ml of compounds dissolved in DMSO at different concentrations (50, 200, 400 and 800 μg/ml) were added to DPPH with a methyl alcohol solution (0.2 mM, 2.9 ml). The mixture was shaken gently and absorbance was read at 517 nm every 5 min, a total of 30 min. The ABTS^+ free-radical scavenging activity assay was performed as described by Ai[9] with slight modification. 7 mM ABTS^+ and 2.45 mM K2S2O8 were dissolved in 10 mM sodium phosphate buffer and then placed at dark room for 16 h to obtain ABTS^+ stock solution. […] After 6 min of incubation period at room temperature, absorbance was read at 714 nm. The scavenging capacity of the antioxidant for the free-radical was calculated according to the following equation: Radical scavenging effect (%) = (1 − A1/A0) × 100% where A0 is the absorbance of blank control and A1 is the absorbance in the presence of sample. Data are represented from three independent experiments, and the mean values were calculated. […]

[7] = target: T2, mushroom tyrosinase; test: Monophenolase activity of mushroom tyrosinase (L-Tyr as substrate); assay type: biochemical; settings: maximum concentration 20 μM
Procedure: as §1

[8] = ABTS+ free-radical scavenging assay
Procedure: as §2

[9] = test system: B16F10 cell; settings: cited from earlier work

T1 sequence (C7FF04 1-392): as above

Compound | Change of relative tyrosinase activity after treatment with Cu2+ [1] | Inhibition Type [2] | Inhibition Mechanism [2] | Inhibition constant KIS [2] | Ki [2] | Kd [3] | KSV (Stern-Volmer quenching constant) ([3]; λex 280 nm) | Type of quenching ([3]; λex 280 nm) | n (binding sites) ([3]; λex 280 nm) | IC50 [4] | IC50 [5] | IC50 of DPPH [6] | Lag time of monophenolase activity [7] | Steady-state activity of monophenolase decreased to ([7]; remaining activity) | IC50 of ABTS+ [8] | KA (apparent binding constant) ([3]; λex 280 nm) | Inhibition of melanogenesis [9]
N[C@@H](Cc1ccc(O)c(O)c1)C(=O)O [DOPA, 3,4-dihydroxyphenylalanine, reference compound] | almost no changes |  |  |  |  |  |  |  |  |  |  |  |  |  |  |  | 
Nn1c(N/N=C/C=C/c2ccccc2)nnc1SCc1cc(=O)c(O)co1 [KAD1] | 1.5 times | Mixed | Reversible | 45.50 µM | 4.95 µM | 34.8 µM | 58400 M⁻¹ | Static | 0.9394 | 21.6 µM | 8.33 ± 0.22 µM |  |  |  |  |  | 
COc1ccccc1C=CC=NNc1nnc(SCc2cc(=O)c(O)co2)n1N [KAD2] | 2 times | Mixed | Reversible | 9.18 µM | 6.3 µM |  | 57000 M⁻¹ | Static | 1.0394 | 20.5 µM | 7.5 ± 0.13 µM | 227.80 µg/mL | 6.7 min | 48.29% | 126.63 µg/mL | 141000 M⁻¹ | effectively inhibit melanogenesis
